Source: patent EP2235030B1, “COMPOUND OF THE DISACCHARIDE TYPE COMPOSITION COMPRISING AND METHOD FOR PRODUCING SUCH A COMPOUND” (Université de Picardie Jules Verne, priority 2007, dated 2009)
Marks after values point to notes of the source that are not given here.

Key:
[1] = test system: chitinases d'insectes et de champignons; conditions: competitive inhibition; cited from earlier work
[2] = test system: Myzus persicae (Sulzer); test: Aphid neonates reared on artificial diet supplemented with DPS2: demographic parameters; assay type: in vivo; conditions: for Temps de doublement de la population / Fécondité journalière / Période préreproductive / rm: mean ± SD; for rm: intrinsic rate of population increase
Protocol: (§1) Deux espèces de pucerons Myzus persicae (Sulzer) et Macrosiphum euphorbiae (Thomas) ont été utilisées pour cette étude. Des adultes ont été isolés et placés dans des cages de PVC sur milieu artificiel pendant une journée afin de synchroniser la descendance. Les néonates, âgés de moins de 24 h sont alors placés sur milieu artificiel contenant des concentrations variant de 0 à 100 µg.mL^-1 du composé DPS2, synthétisé précédemment, selon un protocole décrit par Saguez J, Dubois F, Vincent C, Laberche JC, Sangwan-Norreel BS et Giordanengo P (2006), dans l'article intitulé « Differential aphicidal effects of chitinase inhibitors on the polyphagous homopteran Myzus pensicae (Sulzer) » et publié dans Pest Manag Sci 62: 1150-1154. Plusieurs paramètres démographiques sont relevés quotidiennement afin de déterminer la durée du développement larvaire, la mortalité larvaire et la fécondité et de calculer un paramètre synthétique, le rm (taux intrinsèque d'accroissement des populations) et le temps de doublement des populations. Un minimum de 50 pucerons de chaque espèce est testé par traitement et les individus sont suivis quotidiennement. La taille des pucerons a été mesurée une semaine après le début de l'expérience, sous loupe binoculaire à l'aide d'un oculaire biométrique. Les effets du DPS2 sur la survie larvaire sont analysés par un test du χ^2 de Pearson. Une analyse de variance (ANOVA monofactorielle) a été réalisée avec le logiciel Statistica 5.5 (StatSoft®, Tulsa, Oklahoma, USA) pour tester les effets du DPS2 sur les paramètres démographiques des aphides. Les paramètres significativement altérés sont ensuite analysés par un test de Fisher (PLSD) au seuil de significativité P <0,05.
(§2) Dans les tableaux I, II et III qui suivent, les résultats sont exprimés sous la forme : moyenne ± écart-type. L'effet significatif (*) été testé par une analyse de variance monofactorielle (F) à P<0.05. Les valeurs de même rang suivies par une même lettre indiquent qu'il n'existe pas de différence significative d'après le test du PLSD de Fisher (P<0.05).

[3] = test system: pucerons M. persicae et M. euphorbiae; test: Aphid artificial diet test, statements made for both aphid species without distinction; assay type: in vivo, Myzus persicae, Macrosiphum euphorbiae
Protocol: as §1

[4] = test system: Macrosiphum euphorbiae (Thomas); test: Aphid neonates reared on artificial diet supplemented with DPS2: demographic parameters and body size; assay type: in vivo; conditions: for rm: intrinsic rate of population increase
Protocol: as §1, §2

[5] = DPS2 1 µg.mL^-1 in artificial diet
[6] = DPS2 10 µg.mL^-1 in artificial diet
[7] = DPS2 50 µg.mL^-1 in artificial diet
[8] = DPS2 100 µg.mL^-1 in artificial diet
[9] = DPS2 1 µg.mL^-1 in artificial diet, mean ± SD
[10] = DPS2 10 µg.mL^-1 in artificial diet, mean ± SD
[11] = DPS2 50 µg.mL^-1 in artificial diet, mean ± SD
[12] = DPS2 100 µg.mL^-1 in artificial diet, mean ± SD

allosamidine
activité inhibitrice contre les chitinases [1]: puissante activité inhibitrice

CCCOC1O[C@H](COS(=O)(=O)O)[C@@H](O[C@@H]2O[C@H](CO)[C@@H](O)[C@H](O)[C@H]2NC(C)=O)[C@H](O)[C@H]1OC(C)=O (stereo partly shown) [DPS2]
Temps de doublement de la population ([2]; DPS2 1 µg.mL^-1): 5,6 ± 1,8^b jours
Fécondité journalière [2, 5]: 0,99 ± 0,27^a larves.femelles-1.jour-1
Période préreproductive [2, 5]: 11,6 ± 1,9^b jours
Temps de doublement de la population ([2]; DPS2 10 µg.mL^-1): 5,4 ± 1,2^b b jours
Fécondité journalière [2, 6]: 0,91 ± 0,28^b larves.femelles-1.jour-1
Période préreproductive [2, 6]: 10,9 ± 1,5^a jours
Temps de doublement de la population ([2]; DPS2 50 µg.mL^-1): 5,9 ± 1,6^b b jours
Fécondité journalière [2, 7]: 0,74 ± 0,24^bc larves.femelles-1.jour-1
Période préreproductive [2, 7]: 11,1 ± 1,4^a jours
Temps de doublement de la population ([2]; DPS2 100 µg.mL^-1): 6,5 ± 2,0^a jours
Fécondité journalière [2, 8]: 0,65 ± 0,11^bc larves.femelles-1.jour-1
Période préreproductive [2, 8]: 11,9 ± 1,7^b jours
durée de la période pré-reproductive (augmentation) ([2]; increase versus control diet): augmentée d'environ une journée
rm ([2]; DPS2 1 µg.mL^-1): 0,13 ± 0,04^b femelles.femelles^-1 .jours^-1
rm ([2]; DPS2 10 µg.mL^-1): 0,13 ± 0,03^b femelles.femelles^-1 .jours^-1
rm ([2]; DPS2 50 µg.mL^-1): 0,12 ± 0,03^bc femelles.femelles^-1 .jours^-1
rm ([2]; DPS2 100 µg.mL^-1): 0,11 ± 0,03^c femelles.femelles^-1 .jours^-1
processus de mue ([3]; DPS2 between 50 and 100 µg.mL^-1, many aphids die before leaving the old cuticle): affectés
taux intrinsèque d'accroissement des populations (rm) ([3]; both aphid species, including the lowest concentration of 1 µg.mL^-1): réduite
concentration dès laquelle les effets aphicides maximum sont obtenus ([3]; whatever parameter and aphid species, effects similar at 50 and 100 µg.mL^-1): 50 µg/mL
taille des pucerons ([4]; DPS2 1 µg.mL-1 in artificial diet, after 7 days, mean ± SD): 2,2 ± 0,3^a mm
Temps de doublement de la population ([4]; DPS2 1 µg.mL^-1, mean ± SD): 4,7 ± 1,0^ab jours
Fécondité journalière [4, 9]: 1,16 ± 0,36^a larves.femelles-1 .jour-1
Période préreproductive [4, 9]: 11,3 ± 2,1^a jours
taille des pucerons ([4]; DPS2 10 µg.mL-1 in artificial diet, after 7 days, mean ± SD): 2,1 ± 0,3^b mm
Temps de doublement de la population ([4]; DPS2 10 µg.mL^-1, mean ± SD): 5,5 ± 1,3^b jours
Fécondité journalière [4, 10]: 1,06 ± 0,34^a larves.femelles-1 .jour-1
Période préreproductive [4, 10]: 12,1 ± 1,6^a jours
taille des pucerons ([4]; DPS2 50 µg.mL-1 in artificial diet, after 7 days, mean ± SD): 1,8 ± 0,2^bc mm
Temps de doublement de la population ([4]; DPS2 50 µg.mL^-1, mean ± SD): 8,1 ± 1,6^c jours
Fécondité journalière [4, 11]: 0,81 ± 0,20^b larves.femelles-1 .jour-1
Période préreproductive [4, 11]: 13,4 ± 1,2^b jours
taille des pucerons ([4]; DPS2 100 µg.mL-1 in artificial diet, after 7 days, mean ± SD): 1,7 ± 0,2^c mm
Temps de doublement de la population ([4]; DPS2 100 µg.mL^-1, mean ± SD): 6,5 ± 2,0^c jours
Fécondité journalière [4, 12]: 0,73 ± 0,22^b larves.femelles-1 .jour-1
Période préreproductive [4, 12]: 13,5 ± 1,6^b jours
mortality at 50 µg/mL ([4]; Macrosiphum euphorbiae, 50 µg.mL^-1, read-out: mortalité larvaire): 49%
mortality at 100 µg/mL ([4]; Macrosiphum euphorbiae, 100 µg.mL^-1, read-out: mortalité larvaire): 53%
taille des pucerons ([4]; from 10 µg.mL^-1 upwards): réduite
augmentation du temps de doublement des populations ([4]; highest concentrations, 'près de'): ~4 jours
durée de la période pré-reproductive (augmentation) ([4]; increase versus control diet, at the highest concentrations): deux jours
rm ([4]; DPS2 1 µg.mL^-1, mean ± SD): 0,16 ± 0,04^b femelles.femelles^-1.jours^-1
rm ([4]; DPS2 10 µg.mL^-1, mean ± SD): 0,13 ± 0,03^b femelles.femelles^-1.jours^-1
rm ([4]; DPS2 50 µg.mL^-1, mean ± SD): 0,09 ± 0,03^c femelles.femelles^-1.jours^-1
rm ([4]; DPS2 100 µg.mL^-1, mean ± SD): 0,08 ± 0,03^c femelles.femelles^-1.jours^-1
